This assay concerns Mycobacterium tuberculosis. Put plainly: Antimicrobial activity against multidrug resistant Mycobacterium tuberculosis. It counts as functional.

Here are results for 1 compound from ChEMBL document CHEMBL1144690, “Isolation of cytotoxic metabolites from targeted peruvian amazonian medicinal plants” (2008).

≈ marks a conversion by molar mass, not a printed value.

The term MIC denotes the smallest concentration in the dilution series that meets the test's criterion for growth inhibition. Low readings indicate greater potency, high ones weaker potency. `C/C=C1/CN2CC[C@@]34c5ccccc5N5/C=C6/[C@H]7C[C@@H]8N(CC[C@@]89c8ccccc8N(/C=C(/[C@H]1C[C@H]23)[C@H]54)[C@@H]69)C/C7=C/C` [BISNORDIHYDROTOXIFERINE] displayed an MIC of 6.25 µg/mL (≈ 11.3 µM).
